Consider twelve compounds from PubChem BioAssay (NCI).

Some test systems named below: NCI-H23 lung; A549 NSCLC; LOX IMVI melanoma; SN12C renal; NCI-H460 lung; COLO 205 colon; RPMI-8226 leukemia; NCI-H226 lung; HOP-92 NSCLC; HL-60(TB) leukemia.
Assay in all cases: DTP human tumour cell line panel, 48 h

In general, TGI refers to the concentration at which net growth stops. A word on the GI50: it is the concentration giving 50% growth inhibition.

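Step 1: Grow cells in 96-well plates. Step 2: Expose to compound for 48 hours at 5 concentrations. Step 3: Interpolate endpoints linearly; if unreached, use highest concentration. Here, GI50 denotes the concentration required for 50% inhibition of growth. TGI: concentration producing complete growth inhibition.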 Bounds are passed on as bounds.

Turning to `O=C(O[C@H]1CCN2C[C@H]3C[C@H](CN4C(=O)CCC[C@H]34)[C@@H]2C1)c1ccc(O)cc1`, the TGI in the assay on NCI-H23 lung, with A549 NSCLC, in the assay with LOX IMVI melanoma, with SN12C renal, with NCI-H460 lung and in the assay with COLO 205 colon was greater than 100 µM in each case. Besides, the TGI in the assay with RPMI-8226 leukemia, in the assay with NCI-H226 lung and in the assay on HOP-92 NSCLC was greater than 100 µM in each case.

`CCC[CH2][Pb]([Cl])([CH2]CCC)[CH2]CCC`: the GI50 was 0.0298 µM in the assay on NCI-H23 lung; 0.0264 µM in the assay on A549 NSCLC; 0.0223 µM in the assay with LOX IMVI melanoma; 0.0152 µM with SN12C renal; 0.0232 µM in the assay with HL-60(TB) leukemia; 0.0177 µM in the assay on NCI-H460 lung. For the same compound, the results for the GI50 with COLO 205 colon, with RPMI-8226 leukemia and in the assay on HOP-92 NSCLC were 0.0194 µM, 0.0157 µM and 0.058 µM, respectively. The TGI was determined as 0.116 µM in the assay with NCI-H23 lung; 0.0936 µM in the assay on A549 NSCLC; 0.045 µM in the assay on LOX IMVI melanoma; 0.0294 µM in the assay with SN12C renal; 0.0444 µM with HL-60(TB) leukemia; 0.0417 µM with NCI-H460 lung. Further, the results for the TGI with COLO 205 colon, in the assay with RPMI-8226 leukemia and in the assay on HOP-92 NSCLC were 0.0358 µM, 0.0531 µM and 0.196 µM, respectively.

Take `COC[C@H](C)N=CN1CCc2ccccc2C1(Cc1ccccc1)Cc1ccccc1`: the TGI with NCI-H23 lung was 39.8 µM; in the assay on A549 NSCLC it was greater than 100 µM; with SN12C renal it was 23.8 µM; in the assay on NCI-H460 lung it was 25.9 µM; with COLO 205 colon, 34.6 µM; with RPMI-8226 leukemia, 38.9 µM. In addition, the TGI stood at 37 µM in the assay with NCI-H226 lung and 29.8 µM in the assay with HOP-92 NSCLC.

`CCOC(=O)CNc1nnnn1C1OC(CO)C(O)C1O` (stereo not given): the TGI with A549 NSCLC, in the assay on LOX IMVI melanoma, in the assay on SN12C renal, in the assay with NCI-H460 lung, in the assay with COLO 205 colon and in the assay with RPMI-8226 leukemia was greater than 100 µM throughout. The TGI in the assay on NCI-H226 lung is greater than 100 µM.

As for `O=[N+]([O-])c1cc2c([N+](=O)[O-])cccc2o1`, the TGI with NCI-H23 lung was 37.6 µM; in the assay with A549 NSCLC it was greater than 100 µM; in the assay on LOX IMVI melanoma, greater than 100 µM; in the assay with SN12C renal, 27.9 µM; in the assay with NCI-H460 lung, greater than 100 µM; with COLO 205 colon, 16.5 µM. Moreover, the TGI is 11.4 µM in the assay on RPMI-8226 leukemia, 30.4 µM in the assay on NCI-H226 lung and 36 µM with HOP-92 NSCLC.

Turning to `COC(=O)/C(=N\NC(N)=O)C(C(=O)C=C(C)C)C(=O)C(=O)Nc1ccc(Cl)c(Cl)c1` (stereo not given), the TGI with NCI-H23 lung, in the assay with A549 NSCLC, in the assay with LOX IMVI melanoma, in the assay on SN12C renal, with HL-60(TB) leukemia and with NCI-H460 lung was greater than 100 µM throughout. Besides, the TGI in the assay with COLO 205 colon and in the assay with NCI-H226 lung was greater than 100 µM each time.

Take `C1C[OH+]CC[OH+]CCNCC[OH+]CC[OH+]CCN1.Cl.[Cl-].[Pt+4]`: the GI50 in the assay on NCI-H23 lung was 5.27 µM; in the assay with A549 NSCLC, greater than 100 µM; in the assay with LOX IMVI melanoma, greater than 100 µM; in the assay with SN12C renal, greater than 100 µM; with HL-60(TB) leukemia it was greater than 100 µM; in the assay with NCI-H460 lung, greater than 100 µM. Moreover, the GI50 in the assay with COLO 205 colon, in the assay with RPMI-8226 leukemia and in the assay with HOP-92 NSCLC was greater than 100 µM each time. Besides, the TGI in the assay on NCI-H23 lung is 25 µM; in the assay on A549 NSCLC it was greater than 100 µM; with LOX IMVI melanoma it was greater than 100 µM; with SN12C renal, greater than 100 µM; in the assay on HL-60(TB) leukemia, greater than 100 µM; in the assay with NCI-H460 lung, greater than 100 µM. In addition, the TGI with COLO 205 colon, in the assay on RPMI-8226 leukemia and in the assay on HOP-92 NSCLC was greater than 100 µM throughout.

Consider `CCOCc1cc(=O)c2c(OC)cc3c(c2o1)CCC(C)(C)O3`, for which the TGI in the assay with NCI-H23 lung, in the assay on A549 NSCLC, in the assay on LOX IMVI melanoma, in the assay with SN12C renal, in the assay with HL-60(TB) leukemia and in the assay on NCI-H460 lung was greater than 100 µM each time. In the assay with HOP-92 NSCLC, this compound showed a TGI greater than 100 µM.

As to `O=C(/C=C/OC(=O)c1cccc(Cl)c1)c1ccc(Cl)cc1`, the GI50 in the assay on NCI-H23 lung is 41.7 µM; in the assay with A549 NSCLC it was greater than 100 µM; in the assay on LOX IMVI melanoma it was 36.5 µM; in the assay with SN12C renal, 28.5 µM; with NCI-H460 lung, greater than 100 µM; in the assay on COLO 205 colon, greater than 65 µM. Moreover, the GI50 in the assay with RPMI-8226 leukemia was 30.5 µM; in the assay on NCI-H226 lung it was greater than 79 µM; in the assay with HOP-92 NSCLC, 33.5 µM. Further, the TGI in the assay on NCI-H23 lung, in the assay on A549 NSCLC, in the assay with LOX IMVI melanoma, in the assay with SN12C renal, in the assay on NCI-H460 lung and in the assay on COLO 205 colon was greater than 100 µM throughout. The TGI in the assay on RPMI-8226 leukemia, in the assay with NCI-H226 lung and with HOP-92 NSCLC was greater than 100 µM throughout.

For `Cn1c2ccccc2c2c(=O)n(CCCC(=O)OC(=NC3CCCCC3)NC3CCCCC3)c3c(-c4ccccc4)nnn3c21`, the GI50 in the assay on NCI-H23 lung, in the assay on A549 NSCLC, with LOX IMVI melanoma, in the assay on SN12C renal, in the assay with NCI-H460 lung and in the assay on COLO 205 colon was greater than 100 µM throughout. For the same compound, the GI50 in the assay on RPMI-8226 leukemia and in the assay with NCI-H226 lung was greater than 100 µM in each case. Also, the TGI in the assay on NCI-H23 lung, with A549 NSCLC, in the assay on LOX IMVI melanoma, in the assay with SN12C renal, with NCI-H460 lung and in the assay with COLO 205 colon was greater than 100 µM throughout. Also, the TGI in the assay on RPMI-8226 leukemia and in the assay on NCI-H226 lung was greater than 100 µM in each case.

Consider `CC1C2CC=CC(=O)[C@@]2(C)CCC12OCCO2` (stereo not given in full), for which the TGI with NCI-H23 lung, in the assay with A549 NSCLC, in the assay with SN12C renal, in the assay with NCI-H460 lung, in the assay on NCI-H226 lung and in the assay with HOP-92 NSCLC was greater than 100 µM throughout.

`CN1CCN(Cc2cc(NC(=O)c3cccc(C#Cc4cccc5[nH]nc(N)c45)c3)cc(C(F)(F)F)c2)CC1`: the GI50 in the assay on NCI-H23 lung is 1.72 µM; in the assay with A549 NSCLC, 1.83 µM; in the assay with SN12C renal, 1.66 µM; in the assay on HL-60(TB) leukemia, 1.89 µM; with NCI-H460 lung, 1.67 µM; in the assay with COLO 205 colon, 1.53 µM. Also, the GI50 in the assay with RPMI-8226 leukemia is 2.12 µM; with HOP-92 NSCLC it was 1.24 µM. The TGI turned out to be 3.4 µM in the assay with NCI-H23 lung; 3.28 µM with A549 NSCLC; 3.13 µM in the assay with SN12C renal; 4.42 µM in the assay with HL-60(TB) leukemia; 3.06 µM in the assay on NCI-H460 lung; 2.98 µM in the assay on COLO 205 colon. In addition, the results for the TGI with RPMI-8226 leukemia and in the assay on HOP-92 NSCLC were 4.62 µM and 2.63 µM, respectively.
